Values after ≈ are worked out from the molar mass of the structure shown. “Also recorded” adds a separate entry of the source. Where two headings read alike, the source gives them in different places.

For one data set, the system named is Escherichia coli. Put plainly: Anti-Escherichia coli activity test (paper sheet / dilution multiple method). The class given is cell-based. The procedure:
The samples are preliminarily tested and compared with the positive control, namely the rifampicin under the situation that each sample is 100 μg/tablet and the rifampicin taken as a standard product is 1 μg/tablet.

In a further data set the test system is Artemia larvae. Put plainly: Artemia larva lethal test. The class given is in vivo. The settings on record: for LC50: Artemia larvae, 24 h at room temperature, from corrected mortality; for LC50 value: against Artemia larvae; for lethal Artemia activity (in words): in vivo. The procedure:
(§1) Hatching of Artemia larvae: placing 100 mg of Artemia eggs in a 500 mL beaker, adding 400 mL of artificial sea water, inflating air slowly by using a small inflator pump, hatching at room temperature for 24 h, removing egg shells and the unhatched eggs, and continuously culturing the Artemia larvae for 24 h for later use.
(§2) The biological lethal method of the Artemia larvae is as follows: taking a 96-well cell culture plate according to a Solis improvement method, and adding 2004, of artificial sea water solution containing 10-15 Artemia in each well to prepare a test culture plate. […] A blank control group and sample groups of each concentration are respectively provided with three parallel holes, 54, of the sample solvent (DMSO) is added for the blank control group, 54, of the sample solutions of different concentrations are respectively added into the sample groups, and the final concentrations are 500 μg/mL, 50 μg/mL and 5 μg/mL respectively. The culture is performed at room temperature for 24 h, and then the number of dead individuals of the Artemia larvae is detected and counted under a binocular dissecting microscope. The biological lethal activity of the Artemia larvae is represented by corrected mortality and is calculated according to the following formula: Corrected mortality=(survival rate of control group−survival rate of treated group)/survival rate of control group×100%
(§3) The three concentrations and the corresponding corrected mortalities are input into a computer for respectively calculating LC50 and 95% confidence interval thereof.

The test system of data set [1] is Vibrio anguillarum. The settings on record: cited from earlier work; for MIC: against Vibrio anguillarum, values of compounds 2, 3 and 4 referred to Fdhila F et al., Journal of Natural Products, 2003, 66 (10): 1299-1301; for activity against Vibrio anguillarum (in words): compounds 2-4, based on Fdhila F et al.
Data set [2] has as its system Vibrio anguillarum. Nature of the data set: Anti-Vibrio anguillarum activity test (paper sheet / dilution multiple method). The class given is cell-based. The procedure:
The samples are preliminarily tested under the situation that each sample is 100 μg/tablet, and the samples are found to have better activities. Then a dilution multiple method is adopted for testing the MIC values (the diameters of the paper sheets are 6 mm, 6-10 mm means weak activity, 10-15 mm means medium activity and 15 mm or more means strong activity).

Data set [3] in a line: Artemia larva lethal test. The class given is in vivo. To be noted: Artemia (brine shrimp) larvae, in vivo; against Artemia larvae. The procedure:
as §1, §2, §3

Regarding `CC(C)C[C@H]1NC(=O)[C@H]2CCCN2C1=O` [compound 3, Cyclo(D)-Pro-(D)-Leu], the “inhibitory activity against Escherichia coli (in words)” value with Escherichia coli was “weaker”. In addition, in the data set with Artemia larvae, the LC50 (as a rule, the concentration that kills 50% of the test population) is 87.63 µg/mL (≈ 417 µM); the LC50 value was found to be 87.63 µg/mL (≈ 417 µM); the “lethal Artemia activity (in words)” value is “better lethal Artemia activity”. In addition, in the data set on Vibrio anguillarum [1], the MIC is 0.04 µg/mL (≈ 0.19 µM) and the “activity against Vibrio anguillarum (in words)” value is “better inhibitory activity; also recorded: great bactericidal activity”.

As for `CC[C@@H](C)[C@H]1NC(=O)[C@H]2CCCN2C1=O` [compound 2, Cyclo(D)-Pro-(D)-Ile], the “inhibitory activity against Escherichia coli (in words)” value in the data set with Escherichia coli is given as “weaker”. For the same molecule, in the data set with Artemia larvae, the LC50 is 55.67 µg/mL (≈ 265 µM), the LC50 value came to 55.67 µg/mL (≈ 265 µM) and the “lethal Artemia activity (in words)” value was “better lethal Artemia activity”. In the data set on Vibrio anguillarum [1], the MIC was 0.05 µg/mL (≈ 0.238 µM) and the “activity against Vibrio anguillarum (in words)” value is given as “better inhibitory activity; also recorded: great bactericidal activity”.

Regarding `O=C1N[C@H](Cc2ccccc2)C(=O)N2C[C@@H](O)C[C@H]12` (relative stereo) [compound 4, Cyclo(D)-trans-4-OH-Pro-(D)-Phe], the “inhibitory activity against Escherichia coli (in words)” value in the data set with Escherichia coli was “weaker”. Moreover, in the data set with Artemia larvae, the LC50 stood at 13.45 µg/mL (≈ 51.7 µM), the LC50 value was determined as 13.45 µg/mL (≈ 51.7 µM) and the “lethal Artemia activity (in words)” value is recorded as “better lethal Artemia activity”. Moreover, in the data set on Vibrio anguillarum [1], the MIC was 0.07 µg/mL (≈ 0.269 µM) and the “activity against Vibrio anguillarum (in words)” value is “better inhibitory activity; also recorded: great bactericidal activity”.

As to `CCCCCC/C=C/CCC1C=CCC(=O)O1` (stereo not shown) [compound 1], the MIC in the data set with Vibrio anguillarum [2] (against Vibrio anguillarum, LB medium, 37° C., observed after 24 h) is over 100 µg/mL; in the data set on Escherichia coli (against Escherichia coli, LB medium, 37° C., observed after 24 h, read-out: MIC), 1.58 µg/mL (≈ 6.68 µM); in the data set on Escherichia coli (anti-Escherichia coli activity, read-out: MIC (minimal inhibitory concentration) value) it was 1.58 µg/mL (≈ 6.68 µM). Moreover, the “inhibitory activity against Vibrio anguillarum (in words)” value in the data set on Vibrio anguillarum [2] (compound 1) was “weaker”. Besides, in the data set on Escherichia coli, the “inhibitory activity against Escherichia coli (in words)” value is recorded as “better inhibitory activity”. In data set [3], this molecule yielded a 50% lethal concentration (LC50) at 24 h of 3.25 µg/mL (≈ 13.8 µM). Further, the “lethal Artemia activity (in words)” value in the data set with Artemia larvae is given as “better lethal Artemia activity; also recorded: very good”.

Source of the values: US9200301B2, “Marine streptomyces, pyranosesquiterpene compound, as well as preparation method and applications thereof” (SOUTH CHINA SEA INSTITUTE OF OCEANOLOGY, CHINESE ACADEMY OF …, priority 2011, dated 2015).
